Test results: patent publication US5206234A, “Benzolactam analogs as antagonists of CCK” (priority 1991, dated 1993)

Assays:
anxiety (mice) = test: Black/white exploration test (anxiolytic activity); type: in vivo, mouse (male DBA2)
Source text: The black/white exploration test [Crawley et al. Pharmacology, Biochemistry and Behav. 13, 167 (1980)] is a simple animal model of anxiety. Rodents placed in a two compartment box which consists of a brightly lit, white painted side and a dimly lit, black painted side, display a marked preference for the black side of the apparatus. This behavior is caused by the aversive properties of the brightly lit, white painted section. Classical anxiolytic drugs [such as diazepam, see Crawley, supra] and novel anxiolytic drugs [such as 5HT3 antagonists, see Jones et al. Br. J. Pharm.
A. Naive male DBA2 mice (25-30) were housed on a reversed light/dark cycle and tested during the dark phase of the cycle under dim red light. The apparatus consisted of an open topped box (40 cm long×27 cm wide×27 cm high) divided into a small area (2/5) and a large area (3/5) by a partition that extended 20 cm above the walls. There was a 7.5×7.5 cm opening in the partition at floor level. The small compartment was painted black and the large compartment white. The floor of each compartment was marked into 9 cm squares. The white compartment was illuminated by a 100 W tungsten bulb 17 cm above the box and the black compartment by a similarly placed 60 W red bulb.
Animals that had been injected with drug or vehicle were placed individually into the centre of the white area and their behavior observed during a 5 minute period by remote video recording. Four behavioral parameters were recorded every minute: the number of exploratory rears in the white and black sections, the number of line crossings in the black and white sections, the number of transitions between the two sections and the time spent in the black and white sections. Animals were tested in treatment groups of 8-10 and vehicle controls were run on each test day. Data were analysed by ANOVA and Dunnetts test.

CCK receptor (Pancreas) = biological target: T1, CCK receptor (Pancreas) (Rattus norvegicus, UniProt P30551); test: CCK Receptor Binding (Pancreas), inhibition of 125I-CCK-33 binding; parameters: species or system rat (Male Sprague-Dawley); settings: for IC50: 125I-CCK-33, rat pancreas membranes; for Effect on the 125I-CCK receptor binding assay: added as protease inhibitors
T1 construct: The whole pancreas was dissected free of fat tissue and was homogenized; from tissue; host or cells: pancreas membranes of male Sprague-Dawley rats
T1 sequence (P30551 1-444): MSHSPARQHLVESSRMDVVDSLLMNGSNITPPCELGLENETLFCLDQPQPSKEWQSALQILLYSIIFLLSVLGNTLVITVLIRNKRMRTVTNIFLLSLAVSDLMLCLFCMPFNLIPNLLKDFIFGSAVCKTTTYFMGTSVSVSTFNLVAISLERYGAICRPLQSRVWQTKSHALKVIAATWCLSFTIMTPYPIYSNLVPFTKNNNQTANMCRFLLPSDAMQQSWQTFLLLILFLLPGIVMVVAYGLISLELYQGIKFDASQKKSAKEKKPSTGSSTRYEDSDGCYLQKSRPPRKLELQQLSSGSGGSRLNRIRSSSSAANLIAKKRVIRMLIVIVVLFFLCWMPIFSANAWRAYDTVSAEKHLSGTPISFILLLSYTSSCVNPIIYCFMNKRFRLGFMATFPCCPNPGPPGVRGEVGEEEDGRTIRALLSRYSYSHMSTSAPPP
Experimental: CCK-33 was radiolabeled with ^125 I-Bolton Hunter reagent (2000 Ci/mmole) as described by Sankara et al. (J. Biol. Chem. 254: 9349-9351, 1979). Receptor binding was performed according to Innis and Snyder (Proc. Natl. Acad. Sci. 77, 6917-6921, 1980) with the minor modification of adding the additional protease inhibitors, phenylmethane sulfonyl fluoride and o-phenanthroline. The latter two compounds have no effect on the ^125 I-CCK receptor binding assay.
Male Sprague-Dawley rats (200-350 g) were sacrificed by decapitation. The whole pancreas was dissected free of fat tissue and was homogenized in 20 volumes of ice-cold 50 mM Tris HCl (pH 7.7 at 25° C.) with a Brinkmann Polytron PT 10. The homogenates were centrifuged at 48,000 g for 10 min. Pellets were resuspended in Tris Buffer, centrifuged as above and resuspended in 200 volumes of binding assay buffer (50 mM Tris HCl, pH 7.7 at 25° C., 5 mM dithiothrietol, 0.1 mM bacitracin, 1.2 mM phenylmethane sulfonyl fluoride and 0.5 mM o-phenanthroline). […] All assays were run in duplicate or triplicate. The reaction mixtures were incubated at 37° C. for 30 minutes and centrifuged in a Beckman Microfuge (4 minutes) immediately after adding 1 ml of ice-cold incubation buffer. The supernatant was aspirated and discarded, pellets were counted with a Beckman gamma 5000. For Scatchard analysis (Ann. N.Y. Acad. Sci. 51: 660, 1949), ^125 I-CCK-33 was progressively diluted with increasing concentrations of CCK-33.
A Ki value (dissociation constant of inhibitor) of the compounds of Formula I was estimated.

[1] = biological target: T2, CCK receptor (Brain, cerebral cortex) (Cavia porcellus, UniProt H0VZC5); test: CCK Receptor Binding (Brain), inhibition of 125I-CCK-33 binding; parameters: species or system guinea pig (Male Hartley); settings: head prints ^25 I-CCK; guinea pig cerebral cortex
T2 construct: Cerebral cortex was dissected and used as a receptor source; from tissue; host or cells: cerebral cortex membranes of male Hartley guinea pigs
T2 sequence (H0VZC5 1-426): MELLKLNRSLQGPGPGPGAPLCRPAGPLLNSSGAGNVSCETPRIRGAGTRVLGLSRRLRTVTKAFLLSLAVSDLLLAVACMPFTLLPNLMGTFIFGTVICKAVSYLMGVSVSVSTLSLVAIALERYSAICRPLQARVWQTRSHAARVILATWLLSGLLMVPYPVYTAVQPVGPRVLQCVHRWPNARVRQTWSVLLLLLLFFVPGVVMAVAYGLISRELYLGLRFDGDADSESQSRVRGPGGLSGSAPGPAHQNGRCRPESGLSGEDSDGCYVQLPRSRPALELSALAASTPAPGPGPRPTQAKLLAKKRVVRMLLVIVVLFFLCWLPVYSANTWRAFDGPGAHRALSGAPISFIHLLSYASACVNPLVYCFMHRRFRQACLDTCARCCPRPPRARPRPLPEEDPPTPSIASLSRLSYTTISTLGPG
Experimental: CCK-33 was radiolabeled and the binding was performed according to the description for the pancreas method with modifications according to Saito et al., J. Neurochem. 37:483-490, 1981.
Male Hartley guinea pigs (300-500 g) were sacrificed by decapitation and the brains were removed and placed in ice-cold 50 mM Tris HCl plus 7.58 g/l Trizma-7.4 (pH 7.4 at 25° C.). Cerebral cortex was dissected and used as a receptor source. Each gram of fresh guinea pig brain tissue was homogenized in 10 ml of Tris/Trizma buffer with a Brinkman polytron PT-10. The homogenates were centrifuged at 42,000 g for 15 minutes. Pellets were resuspended in Tris Buffer, centrifuged as above and resuspended in 200 volumes of binding assay buffer (10 mM N-2-hydroxyethyl-piperazine-N'-2-ethane sulfonic acid (HEPES), 5 mM MgCl2, 0.25 mg/ml bacitracin, 1 mM ethylene glycol-bis-(β-aminoethylether-N,N'-tetraacetic acid) (EGTA), and 0.4% bovine serum albumin (BSA)). […] All assays were run in duplicate or triplicate. The reaction mixtures were incubated at 25° C. for 2 hours and centrifuged in a Beckman Microfuge (4 minutes) immediately after adding 1 ml of ice-cold incubation buffer. The supernatant was aspirated and discarded, pellets were counted with a Beckman gamma 5000.

[2] = biological target: T3, Gastrin receptor (Gastric Glands) (Cavia porcellus, UniProt H0VZC5); test: Gastrin Receptor Binding in Guinea Pig Gastric Glands; parameters: species or system guinea pig (male Hartley); settings: head prints ^25 I-Gastrin, read-out: Receptor binding IC50, 125I-Gastrin Gastric Glands
T3 construct: from tissue; host or cells: gastric mucosal glands of male Hartley guinea pigs
T3 sequence (H0VZC5 1-426): T2 sequence (H0VZC5 1-426)
Experimental: Guinea pig gastric mucosal glands were prepared by the procedure of Berglingh and Obrink Acta Physiol. Scand. 96: 150 (1976) with a slight modification according to Praissman et al. C. J. Receptor Res. 3: (1983). Gastric mucosa from guinea pigs (300-500 g body weight, male Hartley) were washed thoroughly and minced with fine scissors in standard buffer consisting of the following: 130 mM NaCl, 12 mM NaHCO3, 3 mM NaH2 PO4, 3 mM Na2 HPO4, 3 mM K2 HPO4, 2 mM MgSO4, 1 mM CaCl2, 5 mM glucose and 4 mM L-glutamine, 25 mM HEPES at pH 7.4. The minced tissues were washed and then incubated in a 37° C. shaker bath for 40 minutes with the buffer containing 0.1% collagenase and 0.1% BSA and bubbled with 95% O2 and 5% CO2. The tissues were passed twice through a 5 ml glass syringe to liberate the gastric glands, and then filtered through 200 mesh nylon. The filtered glands were centrifuged at 270 g for 5 minutes and washed twice by resuspension and centrifugation.
The washed guinea pig gastric glands prepared as above were resuspended in 25 ml of standard buffer containing 0.25 mg/ml of bacitracin. For binding studies, to 220 μl of gastric glands in triplicate tubes, 10 μl of buffer (for total binding) or gastrin (1 μM final concentration, for nonspecific binding) or test compound and 10 μl of ^125 I-gastrin (NEN, 2200 Ci/mmole, 25 pM final) or ^3 H-pentagastrin (NEN 22 Ci/mmole, 1 nM final) were added. The tubes were aerated with 95% O2 and 5% CO2 and capped. The reaction mixtures after incubation at 25° C. for 30 minutes were filtered under reduced pressure on glass G/F B filters (Whatman) and immediately washed further with 4×4 ml of standard buffer containing 0.1% BSA. The radioactivity on the filters was measured using a Beckman gamma 5500 for ^125 I-gastrin or liquid scintillation counting for ^3 H-pentagastrin.

Compound | IC50 (CCK receptor (Pancreas)) | IC50 [1] | other results
Cc1cccc(NC(=O)N[C@@H]2N=C(c3ccccc3)c3ccccc3N(C)C2=O)c1 [Compound B, (R)-N-(2,3-dihydro-1-methyl-2-oxo-5-phenyl-1H-1,4-benzodiazepin-3-yl)-N'-(3-methylphenyl)urea] |  |  | Difference in time spent in the black and white side (anxiety (mice); 0.005 ug/kg): decreased the difference in time spent in the black and white side; Preference for rearing in the black side (anxiety (mice); 0.05 ug/kg): abolished the preference for rearing in the black side; Active dose range (anxiety (mice); black/white exploration test, mice): 0.005 to 0.05 µg/kg
CC(C)(C)OC(=O)CN1C(=O)C(NC(=O)Nc2ccc(Cl)cc2)CCc2ccccc21 (centres unmarked) [Example 1, 1,1-Dimethylethyl 3-{[[(4-chlorophenyl)amino]carbonyl]amino}-2,3,4,5-tetrahydro-2-oxo-1H-1-benzazepine-1-acetic acid ester] | 350 nM | 0.18 µM | IC50 [2]: 120 nM
COc1cccc(NC(=O)NC2CCc3ccccc3N(CC(=O)OC(C)(C)C)C2=O)c1 (centres unmarked) [Example 2] | 14000 nM |  | 
COc1cccc(NC(=O)NC2CCc3ccccc3N(CC(=O)O)C2=O)c1 (centres unmarked) [Example 3] | 2100 nM | 8.6 µM | IC50 [2]: 3100 nM
Cc1cccc(NC(=O)NC2CCc3ccccc3N(CC(=O)OC(C)(C)C)C2=O)c1 (centres unmarked) [Example 4] | 12 nM |  | 
Cc1cccc(NC(=O)NC2CCc3ccccc3N(CC(=O)O)C2=O)c1 (centres unmarked) [Example 5, 2,3,4,5-Tetrahydro-3-{[[(3-methylphenyl)aminol]carbonyl]amino}-2-oxo-1H-1-benzazepine-1-acetic acid] | 940 nM |  | 
Cc1cccc(NC(=O)NC2CCc3ccccc3N(CC(=O)N3CCCC3)C2=O)c1 (centres unmarked) [Example 6, 1-{[2,3,4,5-Tetrahydro-3-{[[(3-methylphenyl)amino]carbonyl]amino}-2-oxo-1H-1-benzazepin-1-yl]acetyl}pyrrolidine] | 80 nM |  | 
Cc1cccc(NC(=O)NC2CCc3ccccc3N(CC(=O)N3CCN(C)CC3)C2=O)c1 (centres unmarked) [Example 7, 1-Methyl-4-{[2,3,4,5-tetrahydro-3-{[[(3-methylphenyl)amino]carbonyl]amino}-2-oxo-1H-1-benzazepin-1-yl]aceyl}piperazine] | 970 nM | 5 µM | IC50 [2]: 610 nM
CC(C)(C)OC(=O)CN1C(=O)C(NC(=O)Nc2cccc3ccccc23)CCc2ccccc21 (centres unmarked) [Example 8] | 960 nM | 0.148 µM | IC50 [2]: 480 nM
O=C(O)CN1C(=O)C(NC(=O)Nc2cccc3ccccc23)CCc2ccccc21 (centres unmarked) [Example 9, 2,3,4,5-Tetrahydro-3-{[[(1-naphthalenyl)amino]carbonyl]amino}-2-oxo-1H-1-benzazepine-1-acetic acid] | 20000 nM |  | 
CN1CCN(C(=O)CN2C(=O)C(NC(=O)Nc3cccc4ccccc34)CCc3ccccc32)CC1 (centres unmarked) [Example 10, 1-Methyl-4-{[2,3,4,5-tetra-hydro-3-{[[(1-naphthalenyl)amino]carbonyl]amino}-2-oxo-1H-1-benzazepin-1-yl]acetyl}piperazine] | 32000 nM |  | 
Cc1ccc(NC(=O)NC2CCc3ccccc3N(CC(=O)N3CCCC3)C2=O)cc1 (centres unmarked) [Example 13, 1-{[2,3,4,5-Tetrahydro-3-{[[(4-methylphenyl)amino]carbonyl]amino}-2-oxo-1H-1-benzazepin-1-yl]aceyl}pyrrolidine] | 1600 nM |  | 
Cc1ccc(NC(=O)NC2CCc3ccccc3N(CC(=O)N3CCN(C)CC3)C2=O)cc1 (centres unmarked) [Example 14, 1-Methyl-4-{[2,3,4,5-tetra-hydro-3-{[[(4-methylphenyl)amino}carbonyl]amino}-2-oxo-1H-1-benzazepin-1-yl]acetyl}piperazine] | 13000 nM | 77 µM | 
c1cnc2c(c1)ccc1cccnc12 [o-phenanthroline, reference compound] |  |  | Effect on the 125I-CCK receptor binding assay (CCK receptor (Pancreas)): no effect
O=S(=O)(F)Cc1ccccc1 [phenylmethane sulfonyl fluoride, reference compound] |  |  | Effect on the 125I-CCK receptor binding assay (CCK receptor (Pancreas)): no effect
